From patent US10265298B2, “Method of increasing the bioavailability of silybin” (Macau University of Science and Technology, priority 2017, dated 2019)

Tests used:
[1] = test system: MCD diet-induced NASH; assay: MCD diet-induced nonalcoholic steatohepatitis (NASH) mouse model; type: in vivo
From the text: Male wild-type (WT) mice C571BI/6 were fed either methionine/choline-sufficient (MCS) chow diet (Trophic Animal Feed High-tech Co., Ltd, China) or MCD diet (Trophic Animal Feed High-tech Co., Ltd, China) for 7 weeks. Animals were randomly divided into eight groups: 1) control, fed a standard control MCS diet and given vehicle (35% polyethylene glycol (PEG) 400:15% Cremophor EL:5% ethanol:45% saline); 2) rats fed a MCD diet and given vehicle; 3) rats fed the MCD diet and orally treated with silybin (300 milligrams per kilogram (mg/kg)); 4) rats fed the MCD diet and orally treated with silybin (150 mg/kg); 5) rats fed the MCD diet and orally treated with tangeretin (150 mg/kg); 6) rats fed the MCD diet and orally treated with 75 mg/kg silybin and 75 mg/kg tangeretin (SB & TG—L); 7) rats fed the MCD diet and orally treated 150 mg/kg silybin and 150 mg/kg tangeretin (SB & TG—M); 8) rats fed the MCD diet and orally treated with 300 mg/kg silybin and […]. Body weight was intermittently monitored during the diet-induction period and every two or three days during the intervention period.
At the end of 8 weeks, mice were sacrificed under ether anesthesia. The following procedures are same as the description under “2.10 Effects of silybin on acute liver damage induced by CCl4 in rats”. The cytokine levels including tumor necrosis factor alpha (TNF-α) (eBioscience Inc, San Diego, Calif., USA), interleukin-6 (IL-6) assay kit (Raybiotech, Norcross, Ga., USA) in serum of NASH model were further measured using commercially available enzyme-linked immunosorbent assay (ELISA) kits.

[2] = after oral administration; cited from earlier work
[3] = in vitro; type: in vitro ADME, rat; details: male, Sprague Dawley, rat
Procedure: Sandwich-cultured rat hepatocytes (SCHs) were established according to previously described methods with minor modifications. Primary rat hepatocytes were isolated from male Sprague Dawley® (SD) rats (220-270 g) using a collagenase perfusion as described previously and plated at a density of 7.4×10^5 cells/2 ml/well onto six-well BioCoat plates. Approximately 24 hours later, hepatocytes were overlaid with 2 ml of 0.25 mg/ml BD Matrigel basement membrane matrix in Dulbecco's modified Eagle medium (DMEM) containing 1% volume by volume percentage (v/v) insulin/transferrin/selenium culture supplement, […] dexamethasone, 2 mM L-glutamine, 1% (v/v) minimum essential medium nonessential amino acids, 1% penicillin-streptomycin. Hepatocytes were cultured for 4 days to allow extensive formation of canalicular networks between cells before experimentation and the medium was changed daily.
Sandwich-cultured hepatocytes (SCHs) were pre-incubated in 2 milliliters (ml) of warm Hank's Balanced Salt Solution (HBSS) with or without Ca^2+ at 37° C. for 15 minutes; the tight junctions of the bile canaliculi open temporally after exposure to HBSS without Ca^2+. Subsequently, cells were incubated at 37° C. for 20 minutes with 1.5 ml of standard HBSS containing silybin (10 μM), or MK 571 (50 μM) as a positive control, or baicalein (25, 15.8, 5, 1.58, 0.5, 0.16 μM), or tangeretin (25, 15.8, 5, 1.58, 0.5 μM). After 20 min, cells were washed three times with ice-cold standard HBSS. The cell samples were lysed by sonication in 1 ml of water for 5 seconds with the ultrasonic cell disruption system (SONICS & […], INC., Newtown, Conn., USA). Conjugated silybin and unconjugated (free) silybin were quantified by high-performance liquid chromatography-tandem mass spectrometry (HPLC-MS/MS). Transport function was normalized to the protein content of the hepatocytes which was evaluated by bicinchoninic acid (BCA) protein assay (Pierce Chemical, Rockford, Ill.). The biliary excretion index (BEI; %) and in vitro biliary clearance (Clbiliary; ml/min/kg) were calculated by using B-CLEAR technology (Qualyst, Inc., Research Triangle Park, N.C.) based on the following equations: […]

inhibition at 20 min [3] [%]	Compound	MCD diet-induced TC and TG increase ([1]; mice on MCD diet)	body weight ([1]; mice on MCD diet)	lipid accumulation and inflammatory infiltration in liver (H&E) ([1]; mice on MCD diet)	liver/body weight ratio ([1]; mice on MCD diet)	MCD diet-induced elevation of ALT, AST, MDA, SOD, GSH and GSH/GSSG ratio ([1]; silybin 300 mg/kg, silybin-tangeretin treatment)	liver/body ratio ([1]; silybin by co-treatment with tangeretin, FIG. 35A)	body weight and liver weight ([1]; silybin by co-treatment with tangeretin, FIG. 35B, 35C)	MCD diet-induced cytokines elevation (IL-1β, TNF-α, IL-6) ([1]; silybin treatment in the absence or presence of tangeretin)	share metabolized to glucuronide conjugates in human plasma [2]	share metabolized to sulfate conjugates in human plasma [2]
	COc1cc(C2Oc3cc([C@H]4Oc5cc(O)cc(O)c5C(=O)[C@@H]4O)ccc3OC2CO)ccc1O (some centres unmarked) [silybin]	clearly inhibited	slightly increased	decreased	moderate decrease	suppressed	significantly decreased	did not significantly affect	suppressed	about 55%	about 28%
~90	COc1ccc(-c2cc(=O)c3c(OC)c(OC)c(OC)c(OC)c3o2)cc1 [tangeretin]										
